No end group written: not given here.
Legend:
[1] = tested on: B16-F1 cells; assay: Adhesion of low metastatic B16-F1 melanoma cells to coated substrate (methylene blue uptake); type: cell-based, murine; conditions: plates coated with 10, 50 or 250 μg/well peptide or 10 μg/ml plasmin-digested thrombin; 37° C., 2 hours
Procedure: (§1) Confluent endothelial cells were dissociated with trypsin-EDTA solution, washed once in growth medium and resuspended in DMEM containing 0.2% bovine serum albumin (BSA). 1.3×10^5 cells/well/0.2 ml DMEM containing 0.2 BSA were added to each protein-coated well and incubated at 37° C. for 2 h. The plates were then washed three times with phosphate batter saline (PBS) and the firmly attached cells were fixed with 3% paraformaldehyde. Fixed cells were then rinsed with 0.1 M borate buffer (pH 8.5), stained for 10 mins. at 22° C. with 0.1 ml/well methylene blue (1% in 0.1 M borate buffer, pH 8.5) and washed four times in borate buffer. This procedure removed practically all non cell-bound dye. Methylene blue which was incorporated by cells was dissolved with 0.1 N HCl (0.2 ml/well) for 40 mins. at 37° C., and determined by its absorbance at 600 nm. Tissue culture plates were coated with either 10, 50 or 250 μg/well of Th-1; with 10 μg/ml of thrombin digested by incubation at 22° C. for 1 hour with plasmin (2 μg/ml); or with 0.2% BSA which served as control (CON). 0.5×10^6 cells/wells of B16-BL6 or B16-F1 cells, which are known to present in vivo high and low pulmonary colonization, respectively, were incubated at 37° C. for 2 hours with the plates coated with the substrates described above. […] The level of cell attachment was evaluated by the methylene blue uptake assay described in I(E) above. […]

[2] = tested on: B16-BL6 cells; assay: Adhesion of high metastatic B16-BL6 melanoma cells to coated substrate (methylene blue uptake); type: cell-based, murine; conditions: plates coated with 10, 50 or 250 μg/well peptide or 10 μg/ml plasmin-digested thrombin; 37° C., 2 hours
Procedure: as §1

[3] = tested on: B16-BL6 murine melanoma cells; assay: Inhibition of lung colonization of co-injected B16-BL6 melanoma cells in C57BL/6 mice; type: in vivo
Procedure: 1×10^5 cells/0.2 ml/mouse B16-BL6 cells were injected into the lateral tail vein of unanesthetized C57BL/6 mice. The mice were monitored on a daily basis and sacrificed 2 weeks later by cervical dislocation. The animals were necropsied, and the lungs were removed, washed in water, and fixed in Bouin's solution (containing saturated solution of picric acid, 2% glacial acetic acid and 3% formaldehyde). The number of lung nodules was determined under a dissecting microscope.
B16-BL6 cell monolayers in culture were detached for 2 mins. with 0.02% EDTA and resuspended gently to 1×10^5 cells/0.2 ml DMEM. 0.5 mg/1×10^5 cells/0.2 ml of Th-1 was preincubated, at 37° C. for 30 mins, with a half of the cells' cultures prior to injecting mice. A single cell suspension (1×10^5 cells/0.2 ml/mouse), comprising either Th-1 treated or Th-1 untreated melanoma cells was injected slowly into the lateral tail vein of C57BL/6 mice.
Fourteen days after injection, the mice were sacrificed, and their lungs were excised and fixed with 10% formaldehyde and stained with saturated picric acid. The number of surface melanoma colonies was counted visually or with the aid of a dissecting microscope.

[4] = tested on: rat-aorta ring; assay: Apoptosis in rat aorta ring by TUNEL nuclei staining; type: cell-based
Procedure: Apoptosis, or programmed cell death, can be evaluated by DNA fragmentation using a technique based on terminal deoxynucleotidyl transferase (TdT) reactivity with DNA breaks. This histochemical staining was based on the original "TUNEL" method (Gavrieli, et al., J. Cell Biol. 119:493-501 (1992)). Tissue was fixed in buffered formalin; after deparaffinization and hydration, the slide was quenched with H2 O2, in methanol. In order to strip the nuclear proteins, the tissue was preincubated in Tris-HCl and then incubated with proteinase K (20 μg/ml) for 15 minutes and washed. DNA fragments are elongated and labeled with biotinylated poly dUTP, introduced by terminal deoxynucleotidyl transferase. Finally, bound biotin is stained by avidin conjugated peroxidase, developed with nickle-enhanced diaminobenzidine. For positive control (FIG. 12, E) staining serves a preparation that was exposed to DNase digestion (according to Gavieli, et al., supra). […] It is important to emphasize that the RGD derived peptide-Th-1, is capable of inducing in addition to inhibition of micro-vessel sprout formation, cellular signaling of programmed cell death, indicating a possible explanation for the mechanism by which angiogenesis is prevented by Th-1.

[5] = tested on: MeWoLN161 (61) cells; assay: Adhesion of high metastatic human melanoma cells 61 to Th-1; type: cell-based; conditions: 100 μg/ml Th-1; compared with low metastatic MeWo
Procedure: (§2) Human melanoma cells established from lymph node metastases, being either MeWo cell lines representing diverse metastatic potentials, or a highly metastatic cell line originating from a melanoma patient (Nip et al., J. Clin. Invest. 90:1406-1413 (1992)) were used. High metastatic cells were selected by adhesion to lymph nodes and were designated as MeWoLN161 (also referred to as "61").
(§3) The cells were incubated with 100 μg/ml Th-1 and their adherence was determined as described above. As control, the level of adherence of the cells to BSA coated substrate was determined.

[6] = tested on: B16-BL6 cells; assay: Inhibition of B16-BL6 cell adhesion to modified RGD-exposed thrombin (plasmin-digested); type: cell-based, murine
Procedure: Fixed cells were then rinsed with 0.1 M borate buffer (pH 8.5), stained for 10 mins. at 22° C. with 0.1 ml/well methylene blue (1% in 0.1 M borate buffer, pH 8.5) and washed four times in borate buffer. This procedure removed practically all non cell-bound dye. Methylene blue which was incorporated by cells was dissolved with 0.1 N HCl (0.2 ml/well) for 40 mins. at 37° C., and determined by its absorbance at 600 nm. 10 μg/ml of thrombin was digested with 2 μg/ml plasmin by incubation in 22° C. for 1 hour. Tissue culture plates were coated with digested […] by incubation at 4° C. for 2 hours. 1×10^6 B16-BL6 cells were incubated, at 22° C. for 30 mins. with increasing concentrations of Th-1 peptide (20-300 μg) prior to attachment to treated tissue culture plates by incubation at 37° C. for 2 hours. The attached cells were washed 3 times with PBS and fix with 3% formaldehyde. The level of attachment was evaluated by the methylene blue uptake assay described in I(E) above.

[7] = tested on: rat aorta rings
Procedure: Type 1 collagen is prepared from the tail tendons of adult Sprague-Dawley rats. Briefly, the collagen fibers are solubilized by a slow stirring for. 48 hours at 4° C. in a sterile, 1/1000 (v/v) acetic acid solution (300 ml for 1 gr. of collagen). The resulting solution is filtered through a sterile triple gause and centrifuged at 16,000 gr for 1 hour at 4° C. The collagen matrix gel is obtained by simultaneously raising the pH and ionic strength of the collagen solution. For this purpose, seven vols. of collagen solution was quickly mixed with 1 vol. of 10×Minimum Essential Medium and 2 vols. of sodium bicarbonate (0.15 M).
Thoratic aortas are obtained from 1-2 month old SD rats sacrificed by decapitation. The aortas are immediately transferred to a Petri dish with PBS. The fibroadipose tissue around the aorta is carefully removed under a dissecting microscope and 1 mm long aortic rings are sectioned and extensively rinsed with PBS.
The collagen solution (0.2 ml) is added to each of 16 mm well and gellation was allowed for 15 mins. at 37° C. The aorta ring is transferred and positioned to the center of the gel and another 0.4 ml of the collagen solution is carefully poured on top of the ring. After the gel is formed, 0.4 ml of Serum-free Endothelial Growth Medium is added and changed every other day.
In this system, the rings of aorta are cultured in a three-dimensional gel of collagen sprouts to microvessel.

[8] = tested on: MIM/8 cells; assay: Adhesion of high metastatic human melanoma cells MIM/8 to Th-1; type: cell-based; conditions: 100 μg/ml Th-1; compared with low metastatic MeWo
Procedure: as §2, §3

[9] = tested on: melanoma cells; conditions: Humphries et al. (1988); cited from earlier work

Substance | adhesion of B16-F1 cells to the substrate [1] | adhesion of B16-BL6 cells to the substrate [2] | inhibition of lung colonization ([3]; 0.5 mg peptide/mouse, co-injected i.v. with B16-BL6 cells, 14 days) | effect on melanotic colonies in the lungs ([3]; co-injection with B16-BL6 cells, 14 days after injection, vs B16-BL6 alone) | potency in inhibiting metastasis of melanoma cells relative to GRGDS peptide ([3]; vs GRGDS of prior art) | concentration giving maximal induction of apoptosis [4] [µg/mL] | apoptosis (nuclei staining, TUNEL) ([4]; 10-250 μg/ml) | adherence of 61 cells to Th-1 compared to BSA control [5] | concentration at which inhibition of adhesion to modified RGD-exposed thrombin was already obtained ([6]; B16-BL6 cells) [µM] | inhibition of adhesion of B16-BL6 cells to modified RGD-exposed thrombin ([6]; cells preincubated with 20-300 μg peptide, 22° C., 30 mins) | concentration giving 50% inhibition of explant formation [7] [µg/mL] | concentration giving complete inhibition [7] [µg/mL] | inhibition of angiogenesis in aorta rings ([7]; 100 μg/ml, vs peptide of similar size without RGD-site) | microvessel formation after longer incubation then washout ([7]; 150 μg/ml for 6 days, then fresh medium) | microvessel formation with peptide constantly present ([7]; 150 μg/ml, up to 14 days) | inhibition in sprout formation of the microvessel ([7]; 10-250 μg/ml) | adherence of MIM/8 cells to Th-1 compared to BSA control [8] | concentration at which inhibition of metastasis was evident [9] [mg/mouse]
AGYKPDEGKRGDAC [Th-1, I.D. No. 2, residues 178-191 of native thrombin] | low relatively dose independent adhesion level | high, dose dependent adhesion | Over 90% | marked reduction of melanotic colonies | about 20 fold | 250 | dose dependent manner | significantly higher level of adherence | 16 | inhibited, in a dose depended manner | ~50 | 100 to 250 | able to inhibit angiogenesis | further increased inhibition | complete inhibition | dose dependent inhibition | significantly higher level of adherence | –
GRGDS | – | – | – | – | – | – | – | – | – | – | – | – | – | – | – | – | – | 3
